In publication PMC6581955, “Rosmarinic acid suppresses Alzheimer’s disease development by reducing amyloid β aggregation by increasing monoamine secretion” (Scientific Reports, 2019):
Blank lines part the entries; values can stand above or below the compound they belong to.

Experiments:
[1] = cited from earlier work; for intestinal permeability: orally ingested polyphenols
[2] = tested on: Aβ; set-up: method as in PMID 14994335; details: screen of five polyphenols; cited from earlier work
[3] = target: T1, Aβ1–42 (Homo sapiens, UniProt P05067); assay: ThT assay (SensoLyte Thioflavin T β-Amyloid (1–42) Aggregation Kit); format: biochemical; details: 100 μM monoamine; for relative ThT fluorescence intensity (Aβ aggregation): 45 μM Aβ1–42, 37 °C; for time at which Aβ aggregation was significantly (p < 0.05) inhibited: 45 μM Aβ1–42, Dunnett's test
T1 construct: Dissolved lyophilized Aβ1–42 (PEPTIDE INSTITUTE, INC., Osaka, Japan); purchased PEPTIDE INSTITUTE, INC., Osaka, Japan
Procedure: Dissolved lyophilized Aβ1–42 (PEPTIDE INSTITUTE, INC., Osaka, Japan) in 2 mM NaOH produced a peptide concentration of 0.5 mg/mL, which was then subjected to sonication by a bath-type sonicator for 1 min prior to re-lyophilizing the resulting solution. The NaOH-treated Aβ1–42 lyophilizate was dissolved in 500 μL distilled water and sonicated for 1 min. We added 500 μL of 20 mM phosphate buffer and centrifuged the resulting solution for 10 min at 16,000 × g. The supernatant was used as the Aβ1–42 solution. Aggregation of Aβ1–42 was measured using the SensoLyte® Thioflavin T β-Amyloid (1–42) Aggregation Kit (ANASPEC Inc., Fremont, CA.) according to the manufacturer’s protocol. To measure the Aβ1–42 fibril formation in the 96-well black microplates, 10 μL of 2 mM ThT and 5 μL of each monoamine solution (2 mM) were added into each well and mixed with 85 μL Aβ1–42 solution. The final concentration of Aβ1–42 was 45 μM and that of each monoamine concentration was 100 μM. The ThT fluorescence signal was monitored with Ex/Em = 440 nm/484 nm using Varioskan LUX (Thermo Fisher Scientific) at 37 °C at intervals of 5 min and 10 min for 0–125 min and 140–175 min, respectively.
All samples were tested in triplicate, and data were shown as relative fluorescence units by subtracting the fluorescence level of the blank from the actual value.

[4] = tested on: Aβ; set-up: method as in PMID 15059976, PMID 23913715; details: cited from earlier work
[5] = In vivo RA transferability test (HPLC-ECD of plasma and brain); set-up: species or system C57BL/6 J mice; details: C57BL/6 J, mouse, plasma, oral, 0.5 % (fed), mice fed 0.5% RA for 7 weeks, mean ± S.E. (n = 5)
Procedure: The blood and whole brain were collected under isoflurane anesthesia after 7 weeks of breeding (C and RA group). The blood samples were centrifuged at 1,800 × g at 4 °C for 10 min to obtain EDTA plasma.
Phosphate-buffered saline (PBS) (1 mL/0.1 g of brain tissue) was added to the brain tissue sample and homogenized with a Polytron homogenizer. After that, the samples were centrifuged at 4,000 × g at 4 °C for 40 min to obtain the brain extract supernatant. The plasma and brain extract were processed as follows. In the β-glucuronidase-treated group, 50 μL of plasma or brain extract was suspended in 50 μL of 200 U β-glucuronidase and 0.1 M sodium acetate buffer (pH 5.0). Then the samples were incubated at 37 °C for 45 min. In the non-treated group, 50 μL of plasma or brain extract were suspended in 50 μL of 0.1 M sodium acetate buffer and incubated as above. After incubation, 200 μL of 0.83 M methyl acetate buffer was added to the samples of both groups, the protein was precipitated by vortex stirring for 1 minute, treated with sonication for 1 minute, and centrifuged at 8,500 × g at 4 °C for 5 min. The supernatants were recovered and passed through 0.45 μm filters, and the concentrations of RA and metabolites in the filtrates were measured using an Ultimate 3000 HPLC-ECD (Thermo Fisher scientific, Massachusetts, US). The conditions of chromatography were the same as the previous report.

[6] = tested on: brain capillary endothelial cell monolayers; assay: BBB permeability in an in vitro BBB model (BBB Kit); format: in vitro ADME; details: caffeine positive, Na-F negative control, n = 3
Procedure: We measured the BBB permeability by using the BBB Kit (PharmaCo-Cell, Nagasaki, Japan) according to the manufacturer’s instructions. CA was used as a positive control, and Na-F as a negative control. The concentration of the assay buffer on the brain parenchyma side was measured by HPLC–ECD as per the in vivo RA transferability test. Na-F was measured with Ex/Em = 485/538 nm using a FlexStarion 3-fluorescence-plate reader (Molecular Devices, CA, USA). The permeability coefficient (Pe: × 10^−6 cm/sec) was calculated as follows using the concentration of the test substance added to the luminal side ([C]Luminal), the concentration of test compound that passed through to the […] every 20 minutes ([C]Abluminal), and the amount on the brain parenchyma side (VAbluminal). Volume(µL)=([C]Abluminal×VAbluminal)/[C]Luminal The amount of permeation was plotted every 20 min and the value of the slope of the formula of the quantity transmitted for each time was used as the permeation index (PS). […] 1/PSendothelial=1/PStotal−1/PSmembrane Pe was calculated by dividing PSendothelial by the insert surface area (A). […]

[7] = tested on: brain monoamines; assay: Monoamine concentration in the whole brain of mice fed RA for 7 weeks (HPLC-ECD); format: in vivo, C57BL/6 J mice; details: 0.5% RA diet for 7 weeks vs control
Procedure: The whole brain was collected under isoflurane anesthesia after 7 weeks of breeding (C and RA group). Buffer (2.0 mM NaHSO3, 20 μM EDTA • 2Na, 0.10 M HClO4; 1 mL/0.1 g of brain tissue) was added to the brain sample, the mixture was then homogenized with a Polytron and centrifuged at 12,000 × g at 4 °C for 5 min to obtain a brain extract supernatant. The supernatants were recovered, passed through 0.45 μm filters, and the concentration of monoamines in the filtrates was measured using HPLC-ECD. The conditions of chromatography were given in Supplemental Methods.

[8] = tested on: DA in brain sections; assay: DA imaging by IMS (MALDI-TOFMS); format: in vivo, C57BL/6 J mice; details: 0.5% RA diet for 10 days
Procedure: Because it has been reported that isoflurane anesthesia increases the release of DA in rat striatum, we adopted decapitation after cervical dislocation without anesthesia to euthanize the mice after 10 days of breeding (C and RA group). The left hemisphere of the brain of each mouse was collected, then sagittal sections 8 μm thick were prepared using a cryostat (CM-3050 S; LEICA, Germany) at −25 °C and mounted on a glass slide coated with indium tin oxide. Sections were sprayed with DPP and incubated at 40 °C for 30 min, and then sprayed with 2,5-dihydroxybenzoic acid to improve ionization efficiency. The surface of the sections was ionized by irradiation with laser light at 200 μm intervals using an Ultrafle Xtreme (matrix-assisted laser desorption/ionization time-of-flight mass spectrometer) (MALDI-TOFMS) (Bruker Daltonik GmbH, Bremen, Germany). The peak of DPP-derivatized DA (m/z: 368.2), which constitutes a complex of the target substance (DA) and DPP, was measured two-dimensionally. Only DA that could be derivatized was measured.

[9] = tested on: monoamines in cerebral cortex, striatum, hippocampus; assay: Monoamine concentration in brain regions after single dose or 11 days of RA; format: in vivo, mice
Procedure: In order to examine the effect of a single dose of RA, we conducted intragastric administration of RA at 0.1 m mol/kgBW to wild type mice and measured the monoamine concentration in three brain regions (cerebral cortex, striatum, and hippocampus) after 0, 60, and 240 min. […] Therefore, we extended the RA administration period to 11 days.

[10] = tested on: mRNA of DA-metabolizing enzymes, Tieg2, Tgf-β1; assay: Relative mRNA measurement in cerebral cortex, SN and VTA by qRT-PCR; format: in vivo, C57BL/6 J mice
Source text: The mice were divided into two groups, C and RA, as mentioned above, and fed with the appropriate diet for 11 days. We collected SN and VTA from the brain according to methods previously described. In brief, we collected the whole brain, washed it with saline, and obtained 1 mm thick coronal sections using a brain slicer BS-Z 2000C (Muromachi Kikai Co., Ltd., Tokyo, Japan). Referring to the Allen Brain Atlas[55], we acquired the SN and VTA from the relevant sections.
Total RNA was extracted from SN, and VTA using TRIzol (Invitrogen) according to the manufacturer’s manual. After checking the quality of total RNA, we synthesized cDNA using PrimeScript^TM RT Master Mix (Perfect Real Time) (TaKaRa Bio, Shiga, Japan). The primer sequences and conditions for our qRT–PCR are given in Suppl. Table S1 and Supplemental Methods. Results are expressed as mean of fold change compared with control condition (SE as error bars, n = 5, 6). All samples were tested in triplicate and the data were normalized to GAPDH (cerebral cortex) or β-actin (SN and VTA).

[11] = Side effects in the animal study; format: in vivo, mice; details: RA-fed animals
[12] = tested on: Aβ; set-up: method as in PMID 19893028; details: Tg2576 mice, cited from earlier work
[13] = tested on: brain serotonin concentration; set-up: method as in PMID 23009399; details: via inhibition of Maoa; cited from earlier work
[14] = tested on: striatum DA and NE; set-up: method as in PMID 25756794; details: fed for 20 days; with elevated Th expression in SN; cited from earlier work
[15] = 0.5% RA diet 11 days vs controls, P < 0.05
[16] = RA diet 11 days, normalized to β-actin

T1 sequence (P05067 672-713): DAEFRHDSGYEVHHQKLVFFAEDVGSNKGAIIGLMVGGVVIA

SMILES: COc1cc(/C=C/C(=O)CC(=O)/C=C/c2ccc(O)c(OC)c2)ccc1O [Cur, curcumin, reference compound]
- intestinal permeability [1]: approximately 0.1%
- Aβ aggregation in vitro [2]: significantly inhibited

SMILES: COc1cc(/C=C/C(=O)O)ccc1O [FA, ferulic acid]
- Aβ aggregation in vitro [2]: significantly inhibited

SMILES: O=c1c(O)c(-c2ccc(O)c(O)c2)oc2cc(O)cc(O)c12 [quercetin]
- brain serotonin concentration [13]: suppressed a decrease

SMILES: Cn1cnc2c1c(=O)[nH]c(=O)n2C [theobromine]
- DA and NE concentrations in the striatum [14]: significant increases

Now from value to compound, other results behind:

- relative ThT fluorescence intensity (Aβ aggregation) [3]: lower than that in their absence
- time at which Aβ aggregation was significantly (p < 0.05) inhibited [3]: 15 to 160 min
SMILES: NCCc1ccc(O)c(O)c1 [DA, dopamine]
- Aβ aggregation [4]: inhibit

- relative ThT fluorescence intensity (Aβ aggregation) [3]: lower than that in their absence
SMILES: O=C(O)Cc1ccc(O)c(O)c1 [DOPAC, 3,4-dihydroxyphenylacetic acid]

- relative ThT fluorescence intensity (Aβ aggregation) [3]: lower than that in their absence
- time at which Aβ aggregation was significantly (p < 0.05) inhibited [3]: 20 to 160 min
SMILES: N[C@@H](Cc1ccc(O)c(O)c1)C(=O)O [L-DOPA, levodopa]
- Aβ aggregation [4]: inhibit

- relative ThT fluorescence intensity (Aβ aggregation) [3]: lower than that in their absence
- time at which Aβ aggregation was significantly (p < 0.05) inhibited [3]: 20 to 160 min
SMILES: NC[C@H](O)c1ccc(O)c(O)c1 [NE, norepinephrine]

- concentration at 7 weeks ([5]; β-glucuronidase not reacted): 590 ± 220 nM
- concentration at 7 weeks ([5]; β-glucuronidase reacted): 750 ± 150 nM
- transendothelial permeability (Pe) [6]: lowest value
- Tgf-β1 gene expression in SN and VTA ([10]; RA diet 11 days): significantly downregulated
- Tieg2 gene expression in SN and VTA ([10]; RA diet 11 days vs controls): significantly decreased
- Th mRNA level in cerebral cortex ([10]; RA diet 11 days, P = 0.13): somewhat increased
- mRNA levels of DA-metabolizing enzymes in cerebral cortex ([10]; RA diet 11 days, normalized to GAPDH): no significant difference
- Comt mRNA expression in SN [10, 16]: significantly downregulated
- Maob mRNA expression in SN [10, 16]: significantly downregulated
- Maob mRNA expression in VTA [10, 16]: significantly downregulated
SMILES: O=C(/C=C/c1ccc(O)c(O)c1)O[C@H](Cc1ccc(O)c(O)c1)C(=O)O [RA, rosmarinic acid]
- DA concentration in whole brain [7]: changed but not significantly
- DOPAC concentration in whole brain [7]: significantly increased
- L-DOPA concentration in whole brain [7]: significantly increased
- NE concentration in whole brain [7]: changed but not significantly
- DPP-derivatized DA signals in cerebral cortex and striatum [8]: more strongly than in control group
- DOPAC level in cerebral cortex [9, 15]: increased significantly
- L-DOPA level in cerebral cortex [9, 15]: increased significantly
- NE level in cerebral cortex [9, 15]: increased significantly
- DA level in cerebral cortex ([9]; 0.5% RA diet 11 days vs controls, P = 0.068): somewhat increased
- monoamine concentration in striatum and hippocampus ([9]; RA diet 11 days, data not shown): not significantly changed
- monoamine concentration in cerebral cortex, striatum and hippocampus ([9]; single intragastric dose 0.1 m mol/kgBW, 0, 60, 240 min, data not shown): no significant differences
- side effects including nausea and vomiting [11]: not observed
- intestinal permeability [1]: ~1%
- intestinal permeability, of intake volume ([1]; previous in vitro study): < 1%
- Aβ aggregation in vitro [2]: significantly inhibited
- Aβ deposition in the brain (immunohistochemistry) ([12]; RA diet for 10 months): significantly decreased
- Aβ aggregation inhibitory activity in the brain, among five polyphenols [12]: highest
